Test results reported in ChEMBL document CHEMBL1201862, “PubChem BioAssay data set” (2004).
Activity calls are given as the source filed them.

Experiments:
[1] = cytotoxicity in HEK-293T cells, dose response, cytotoxicity control for TCR NF-kB inhibitor project, luminescence, T-cell screen hits (AID 489026); assay type: functional, cell-based;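 further: cells exposed to compound about 14 hours before the viability readout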
[2] = Shn3 3'UTR reporter inhibitors, dose response, cell-based, Clone20 osteoblasts, firefly luciferase, cherry-picked (AID 624132); assay type: functional;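 further: firefly luciferase luminescence from reporter carrying the Shn3 3'UTR in osteoblasts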
[3] = HepG2 cell cytotoxicity, dose response, cytotoxicity control for Shn3 inhibitor project, CellTiter-Glo, cherry-picked (AID 624134); assay type: functional, cell-based
[4] = control 3'UTR Renilla luciferase suppression, dose response, counter-screen for Shn3 inhibitor project, cell-based, Clone20-Shn3RL, cherry-picked (AID 624133); assay type: functional
[5] = molecular target: Luciferin 4-monooxygenase (Photinus pyralis, UniProt P08659); experiment: firefly luciferase enzyme inhibitors, dose response, biochemical, luminescence (AID 1891)
[6] = Luminescence Cell-Based Dose Confirmation HTS to Identify Inhibitors of Platelet Dense Granule Release. [Related pubchem assays: 1663 (Primary HTS), 1678 (Summary of Project)]; assay type: functional
[7] = molecular target: T1, Microphthalmia-associated transcription factor (Homo sapiens, UniProt O75030); experiment: TRPM1 promoter luciferase signal decrease, dose response, MITF inhibitor project, cell-based, SK-MEL-5, cherry-picked, set 3 (AID 493073); assay type: functional
T1 sequence (O75030 whole entry): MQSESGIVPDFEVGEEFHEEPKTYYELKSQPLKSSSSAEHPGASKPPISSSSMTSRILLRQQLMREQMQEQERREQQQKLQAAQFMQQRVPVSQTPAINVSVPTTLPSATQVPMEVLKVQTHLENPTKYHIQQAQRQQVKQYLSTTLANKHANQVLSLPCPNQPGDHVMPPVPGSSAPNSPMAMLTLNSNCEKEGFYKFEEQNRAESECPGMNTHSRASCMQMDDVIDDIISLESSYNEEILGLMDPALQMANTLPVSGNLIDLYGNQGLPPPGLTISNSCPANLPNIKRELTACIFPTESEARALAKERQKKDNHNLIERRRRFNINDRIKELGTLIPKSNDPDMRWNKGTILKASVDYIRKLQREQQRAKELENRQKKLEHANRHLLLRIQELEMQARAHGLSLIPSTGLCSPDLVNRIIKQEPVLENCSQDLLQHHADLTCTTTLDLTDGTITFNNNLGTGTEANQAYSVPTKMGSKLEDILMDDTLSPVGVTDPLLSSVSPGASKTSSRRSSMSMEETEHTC

A-375 = experiment: MITF: Counter assay: A375 proliferation Measured in Cell-Based System Using Plate Reader - 2084-03_Inhibitor_Dose_DryPowder_Activity. [Related pubchem assays (depositor defined):AID488944]; assay type: functional; conditions: Homo sapiens
Escherichia coli = experiment: microbe, parasite or virus in culture
[8] = molecular target: T2, Short transient receptor potential channel 4 (Mus musculus, UniProt Q9QUQ5); experiment: mouse TRPC4 channel inhibitors, dose response, cell-based, HEK293 TRPC4/mu-opioid, Fluo-4 calcium (AID 434942); assay type: functional;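 further: potency of inhibitors blocking the TRPC4 calcium response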
T2 sequence (Q9QUQ5 whole entry): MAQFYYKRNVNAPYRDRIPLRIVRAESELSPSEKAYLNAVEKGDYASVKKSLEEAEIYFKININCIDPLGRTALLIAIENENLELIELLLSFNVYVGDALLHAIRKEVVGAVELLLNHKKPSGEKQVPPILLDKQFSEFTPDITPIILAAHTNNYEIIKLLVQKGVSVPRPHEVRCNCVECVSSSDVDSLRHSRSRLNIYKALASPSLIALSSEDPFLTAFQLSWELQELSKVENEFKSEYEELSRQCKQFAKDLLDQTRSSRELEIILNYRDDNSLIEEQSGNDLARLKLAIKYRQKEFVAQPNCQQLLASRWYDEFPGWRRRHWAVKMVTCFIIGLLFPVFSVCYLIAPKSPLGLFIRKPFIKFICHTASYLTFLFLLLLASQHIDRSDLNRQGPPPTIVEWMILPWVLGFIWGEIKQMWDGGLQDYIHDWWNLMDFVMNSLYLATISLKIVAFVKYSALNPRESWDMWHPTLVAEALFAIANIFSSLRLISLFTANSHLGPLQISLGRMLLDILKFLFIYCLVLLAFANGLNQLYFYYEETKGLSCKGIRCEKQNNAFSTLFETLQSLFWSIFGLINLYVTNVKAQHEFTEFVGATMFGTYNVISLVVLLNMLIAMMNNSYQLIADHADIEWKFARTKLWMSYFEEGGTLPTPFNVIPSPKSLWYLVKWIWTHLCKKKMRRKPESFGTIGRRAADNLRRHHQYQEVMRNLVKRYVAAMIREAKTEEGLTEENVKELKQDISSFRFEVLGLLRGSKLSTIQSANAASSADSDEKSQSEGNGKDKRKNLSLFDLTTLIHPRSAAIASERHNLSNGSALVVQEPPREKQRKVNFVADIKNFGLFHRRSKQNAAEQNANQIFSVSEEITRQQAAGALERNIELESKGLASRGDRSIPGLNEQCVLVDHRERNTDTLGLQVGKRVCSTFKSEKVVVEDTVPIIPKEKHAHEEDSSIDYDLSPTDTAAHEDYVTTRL

[9] = molecular target: T2, Short transient receptor potential channel 4; experiment: mouse TRPC4 channel activators, dose response, cell-based, HEK293 TRPC4/mu-opioid, Fluo-4 calcium (AID 434937); assay type: functional
cells [10] = assay type: functional, cell-based
[11] = molecular target: T3, Heat shock factor protein 1 (Mus musculus, UniProt P38532); experiment: inhibition of MG132-induced HSE-luciferase signal, confirmation, cell-based, NIH3T3, luminescence, dose retest (AID 2382); assay type: functional;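 further: NIH3T3 fibroblasts with HSF1-driven luciferase reporter stressed by proteasome inhibitor MG132; luminescence from HSF1-driven luciferase expression after 8 hours of MG132 stress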
T3 sequence (P38532 whole entry): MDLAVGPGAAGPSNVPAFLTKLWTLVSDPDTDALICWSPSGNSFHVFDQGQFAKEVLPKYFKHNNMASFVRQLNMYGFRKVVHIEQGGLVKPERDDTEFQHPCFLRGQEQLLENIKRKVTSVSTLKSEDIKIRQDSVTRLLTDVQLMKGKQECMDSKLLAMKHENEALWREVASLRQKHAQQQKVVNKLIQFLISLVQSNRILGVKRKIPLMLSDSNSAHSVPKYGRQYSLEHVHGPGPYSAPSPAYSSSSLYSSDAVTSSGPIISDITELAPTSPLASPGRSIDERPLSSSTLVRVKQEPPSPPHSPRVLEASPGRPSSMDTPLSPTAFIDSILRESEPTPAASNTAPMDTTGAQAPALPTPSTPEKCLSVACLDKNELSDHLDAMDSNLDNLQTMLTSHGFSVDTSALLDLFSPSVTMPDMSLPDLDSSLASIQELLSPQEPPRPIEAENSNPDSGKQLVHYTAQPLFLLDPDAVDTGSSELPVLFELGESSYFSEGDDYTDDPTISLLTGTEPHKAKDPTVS

cells [12] = assay type: functional, cell-based; remark: listed apart in the source
X-box-binding protein 1 = molecular target: T4, X-box-binding protein 1 (Homo sapiens, UniProt P17861); assay type: functional, Cricetulus griseus;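 further: confirmatory dose-response counter-screen serving a CHOP assay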
T4 sequence (P17861 whole entry): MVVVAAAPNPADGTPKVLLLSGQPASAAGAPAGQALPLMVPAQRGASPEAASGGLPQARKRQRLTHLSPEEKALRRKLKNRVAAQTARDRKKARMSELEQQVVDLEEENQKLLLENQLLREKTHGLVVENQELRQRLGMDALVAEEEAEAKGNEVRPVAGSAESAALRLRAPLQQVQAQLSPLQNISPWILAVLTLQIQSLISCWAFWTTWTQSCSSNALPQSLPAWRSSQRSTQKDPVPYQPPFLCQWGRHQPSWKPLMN

Sequence of Luciferin 4-monooxygenase (P08659 whole entry): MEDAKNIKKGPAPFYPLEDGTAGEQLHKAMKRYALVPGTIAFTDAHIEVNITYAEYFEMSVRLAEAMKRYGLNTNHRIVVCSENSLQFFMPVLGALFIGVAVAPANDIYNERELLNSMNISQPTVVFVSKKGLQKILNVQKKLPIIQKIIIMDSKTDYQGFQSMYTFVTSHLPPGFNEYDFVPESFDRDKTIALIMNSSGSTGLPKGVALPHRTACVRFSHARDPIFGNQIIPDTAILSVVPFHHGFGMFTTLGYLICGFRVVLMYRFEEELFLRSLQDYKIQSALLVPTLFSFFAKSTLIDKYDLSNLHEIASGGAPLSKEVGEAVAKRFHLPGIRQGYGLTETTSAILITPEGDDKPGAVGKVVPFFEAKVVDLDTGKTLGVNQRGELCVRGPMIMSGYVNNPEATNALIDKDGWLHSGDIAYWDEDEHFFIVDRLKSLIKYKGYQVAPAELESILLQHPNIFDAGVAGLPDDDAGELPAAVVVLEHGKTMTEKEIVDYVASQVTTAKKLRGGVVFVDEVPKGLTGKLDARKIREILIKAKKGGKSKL

Q: Which results are given for `Cc1ccc(NS(=O)(=O)c2ccc(C(=O)NC3CCN(Cc4ccccc4)CC3)cc2)cc1`?
A: IC50 [1]: 76.2 µM (inactive); AC50 [2]: 4.69 µM (active); AC50 [3]: 14.8 µM (active); AC50 [4]: 12.9 µM (active)

Q: Which results are given for `O=C(/C=C/Nc1ccccc1Br)c1ccccn1`?
A: EC50 [5]: 1.34 µM (active); EC50 [6]: 4.02 µM (active); AC50 [7]: 0.899 µM (active); AC50 (A-375): 27.6 µM (active); AC50 [2]: 1.8 µM (active); AC50 [3]: 47.7 µM (active); AC50 [4]: 30.4 µM (active); AC50 (Escherichia coli): > 150 µM (inactive)

Q: For `Cc1cc(NCc2ccccc2)nc2ccccc12`, which EC50 [8] is on record?
A: Its EC50 is 3.35 µM (active).

Q: And the EC50 [9]?
A: Its EC50 is 8.41 µM (active).

Q: Which results are given for `COC(=O)[C@]12OC[C@]34C([C@@H](O)[C@@H]1O)[C@]1(C)CC(=O)C(O)=C(C)[C@@H]1C[C@H]3OC(=O)[C@H](O)[C@@H]24` (stereo not given in full)?
A: EC50 (cells [10]): > 350 µM (not active); EC50 [11]: 1.01 µM (active); EC50 (cells [12]): > 350 µM (not active); IC50 [1]: > 80 µM (inactive)

Q: With `CC(C)c1ccc(C2C3CSCC=C3C(C#N)=C(N)C2(C#N)C#N)cc1` (stereo not given) as the compound, how does the “Absolute IC50 (XBP1)” value (X-box-binding protein 1) read?
A: Its value is 10 µM.

Q: With `O=C1CC(c2cc(F)ccc2F)c2cc3c(cc2N1)CCC3` (stereo not given) as the compound, how does the IC50 [1] read?
A: The IC50 was > 80 µM (inactive).
